# What was measured:
# [1] = tested on: untransformed B104 maize line; assay: Growth inhibition dosage response in maize callus culture; format: cell-based, Zea mays
# [2] = biological target: Mariprofundus ferrooxydans EPSP synthase DGT-14 variant DGT-14 v6 (G101A), SEQ ID NO:1 (Mariprofundus ferrooxydans, UniProt Q0EYT4, G101A); assay: In vitro kinetic assay (inorganic phosphate production, malachite green); format: biochemical; details: IC50 (glyphosate), values greater than 50 are estimates
# [3] = tested on: Arabidopsis transformed with TraP5 v1::dgt-14 (pDAB102787); assay: Postemergence glyphosate tolerance, visual injury; format: in vivo, Arabidopsis thaliana; details: 2 weeks after application
# Text: (§1) Transgenic T1 Arabidopsis plants containing the dgt-14 transgene were sprayed with differing rates of glyphosate. A distribution of varying concentrations of glyphosate rates, including elevated rates, were applied in this study to determine the relative levels of resistance (105, 420, 1,680 or 3,360 g ae/ha). The typical 1× field usage rate of glyphosate is 1,120 g ae/ha. The T1 Arabidopsis plants that were used in this study were variable in copy number for the dgt-14 transgene. The low copy dgt-14 T1 Arabidopsis plants were identified using the molecular confirmation assays described above, and self-pollinated and used to produce T2 plants.
# (§2) The Arabidopsis T1 transformants were first selected from the background of untransformed seed using a glufosinate selection scheme. Three flats or 30,000 seed were analyzed for each T1 construct. The T1 plants selected above were molecularly characterized and the plants were subsequently transplanted to individual pots and sprayed with various rates of commercial glyphosate as previously described. The dose response of these plants is presented in terms of % visual injury 2 weeks after treatment (WAT). […] An arithmetic mean and standard deviation is presented for each construct used for Arabidopsis transformation. The range in individual response is also indicated in the last column for each rate and transformation. Wildtype, non-transformed Arabidopsis (c.v. Columbia) served as a glyphosate sensitive control.
# (§3) Selected T1 Arabidopsis plants which were identified to contain low-copy numbers of transgene insertions (1-3 copies) were self-fertilized to produce a second generation for additional assessment of glyphosate tolerance. […] In the T2 generation hemizygous and homozygous plants were available for testing for each event and therefore were included for each rate of glyphosate tested. Hemizygous plants contain two different alleles at a locus as compared to homozygous plants which contain the same two alleles at a locus. The copy number and ploidy levels of the T2 plants were confirmed using the molecular analysis protocols previously described. Likewise, glyphosate was applied using the methods and rates as previously described. The dose response of the plants is presented in terms of % visual injury 2 weeks after treatment (WAT). […] An arithmetic mean and standard deviation are presented for each construct used for Arabidopsis transformation. The range in individual response is also indicated in the last column for each rate and transformation. Wildtype, non-transformed Arabidopsis (cv. Columbia) served as a glyphosate sensitive control. In addition, plants comprising a glyphosate herbicide resistance gene, dgt-1 (as described in U.S. patent Ser. No. 12/558,351, incorporated herein by reference in its entirety) were included as a positive control.
# (§4) Randomly selected T2 Arabidopsis plants which were identified to contain low-copy numbers of transgene insertions (1-3 copies) were self-fertilized to produce a third generation for additional assessment of glyphosate tolerance. Arabidopsis seed from the third generation (T3) were planted and evaluated for glyphosate tolerance using the same protocols as previously described. […] These Events were assayed via LC-MS-MS to confirm that the plants expressed the DGT-14 protein. […] Exemplary resistant T3 Events comprised dgt-14 linked with TraP8 v2 (pDAB105526), TraP9 v2 (pDAB105527), TraP12 v2 (pDAB105528) and TraP13 v2 (pDAB105529).
# [4] = tested on: Arabidopsis with dgt-1 (pDAB3759), T2 segregating population; assay: Postemergence glyphosate tolerance, visual injury; format: in vivo, Arabidopsis thaliana; details: 2 weeks after application
# Text: as §1, §2, §3, §4
# [5] = tested on: T0 dgt-14 corn plants; assay: Postemergence herbicide tolerance in dgt-14 transformed T0 corn; format: in vivo, Zea mays; details: Durango DMA
# Description: T0 events are allowed to acclimate in the greenhouse and are grown until two to four new, normal looking leaves emerge from the whorl (i.e., plants that transition from tissue culture to greenhouse growing conditions). Plants are grown at 27° C. under 16 hour light:8 hour dark conditions in the greenhouse. The plants are then treated with commercial formulations of Durango DMA™ (containing the herbicide glyphosate) with the addition of 2% w/v ammonium-sulfate. Herbicide applications are made with a track sprayer at a spray volume of 187 L/ha, 50-cm spray height. T0 plants are sprayed with a range of glyphosate from 280-4480 g ae/ha glyphosate, which is capable of significant injury to untransformed corn lines. A lethal dose is defined as the rate that causes >95% injury to the B104 inbred.
# [6] = tested on: Arabidopsis transformed with TraP5 v1::dgt-14 (pDAB102787); assay: Postemergence glyphosate tolerance, visual injury; format: in vivo, Arabidopsis thaliana; details: 2 weeks after application; remark: listed apart in the source
# [7] = tested on: Arabidopsis transformed with TraP5 v2::dgt-14 (pDAB105525); assay: Postemergence glyphosate tolerance, visual injury; format: in vivo, Arabidopsis thaliana; details: 2 weeks after application
# [8] = tested on: Arabidopsis transformed with TraP9 v2::dgt-14 (pDAB105527); assay: Postemergence glyphosate tolerance, visual injury; format: in vivo, Arabidopsis thaliana; details: 2 weeks after application
compound,measurement,setting,value
"O=C(O)CNCP(=O)(O)O [glyphosate, N-(phosphonomethyl)glycine]",glyphosate concentrations sufficient to inhibit cell growth,[1],≥ 0.25 mM
same,IC50,[2]; at 60 μM PEP,> 80 mM
same,IC50,[2]; at 1 mM PEP,> 80 mM
same,Visual % injury (Ave),"[3]; T1, 105 g ae/ha",64.0%
same,Visual % injury (Ave),"[3]; T1, 420 g ae/ha",99.0%
same,Visual % injury (Ave),"[3]; T1, 1680 g ae/ha",100.0%
same,Visual % injury (Ave),"[3]; T2, 420 g ae/ha",90.0%
same,Visual % injury (Ave),"[3]; T2, 1680 g ae/ha",88.8%
same,Visual % injury (Ave),"[3]; T2, 3360 g ae/ha",94.5%
same,Visual % injury (Ave),"[3]; T3, 420 g ae/ha",85.0%
same,Visual % injury (Ave),"[3]; T3, 1680 g ae/ha",93.7%
same,Visual % injury (Ave),"[3]; T3, 3360 g ae/ha",93.7%
same,Visual % injury (Ave),"[4]; T1 study, 105 g ae/ha",40.0%
same,Visual % injury (Ave),"[4]; T1 study, 420 g ae/ha",30.0%
same,Visual % injury (Ave),"[4]; T1 study, 1680 g ae/ha",55.0%
same,Visual % injury (Ave),"[4]; T1 study, 3360 g ae/ha",57.5%
same,Visual % injury (Ave),"[4]; T2 study, 420 g ae/ha",40.0%
same,Visual % injury (Ave),"[4]; T2 study, 840 g ae/ha",47.5%
same,Visual % injury (Ave),"[4]; T2 study, 1680 g ae/ha",41.3%
same,Visual % injury (Ave),"[4]; T2 study, 3360 g ae/ha",35.0%
same,Visual % injury (Ave),"[4]; T3 study, 420 g ae/ha",42.5%
same,Visual % injury (Ave),"[4]; T3 study, 840 g ae/ha",40.0%
same,Visual % injury (Ave),"[4]; T3 study, 1680 g ae/ha",47.5%
same,Visual % injury (Ave),"[4]; T3 study, 3360 g ae/ha",77.5%
same,tolerance to glyphosate achieved at rates up to,[5],up to 4480 g ae/ha
same,Visual % injury (Ave),"[6]; T2, 840 g ae/ha",90.0%
same,Visual % injury (Ave),"[6]; T3, 840 g ae/ha",86.3%
same,Visual % injury (Ave),"[7]; T2, 840 g ae/ha",90.0%
same,Visual % injury (Ave),"[7]; T3, 840 g ae/ha",97.5%
same,Visual % injury (Ave),"[8]; T2, 840 g ae/ha",0.0%
same,Visual % injury (Ave),"[8]; T3, 840 g ae/ha",0.0%
